# Entries after “also recorded” stand apart in the source; their conditions may differ. No end group written: not given here.
# Experiments:
# [1] = tested on: A172 glioblastoma cells; assay: Peptide incubation with A172 glioblastoma cells, viability; format: cell-based, human; conditions: 6 μM, 30 minutes at 37° C.
# Experimental: Fusion proteins containing a Tat domain and a p16 domain were synthesized as peptides. Two forms of the peptides were made, one with Tat on the amino terminus (designated Tat-P16), and the other with p16 on the amino terminus (P16-Tat). Control peptides were synthesized having only the Tat or P16 sequence. The peptides were incubated with A172 glioblastoma cells, then the cells were assayed for viability.
# [2] = tested on: rat cerebral arteries; assay: Vasodilation and vasoconstriction response of rat cerebral arteries before and after peptide; format: cell-based; conditions: after vs before intraluminal peptide
# Experimental: The blood vessels were put in culture described above and perfused with buffer of the same composition as cerebrospinal fluid. Vessel diameter was measured before and after administration of each reagent. 3 μM of each peptide was perfused through for 10 minutes followed by a 10 minute wash through. Vasoconstriction and vasodilation were determined for each vessel before peptide was applied. Perfusion was continued until the vessels relaxed to their original diamter (approximately 30 minutes). The vasoconstriction and vasodilation reponse was remeasured after the 10 minute wash through. The 60 mM KCl and 16 mM KCl conditions are […], respectively. Histamine and Bradykinin are endothelial cell vasodilators.
# (§1) In some experiments, the arterial segments were denuded of endothelium by passing an air bubble through the lumen, thus exposing the smooth muscle cells to luminally administered peptides. Constriction to pressure and 60 mM KCl and dilation of arteries with myogenic tone to 16 mM KCl were used as benchmarks of functional arteries. Peptide containing PCSF was perfused intraluminally at an inlet pressure of 70 mmHg with the outlet open, for 20 min and then perfused with normal PCSF. This procedure ensures a 20 min of exposure of the arteries to the peptide.
# (§2) Effect of peptide on endothelial and smooth muscle function was evaluated by histamine (0.3 and 1 μM) and bradykinin (0.5 μM) (endothelium-dependent vasodilators) and 16 and 60 mM KCl (results in dilation and constriction of arteries by hyperpolarizing and depolarizing smooth muscle, respectively). These drug solutions were added to the superfusate and applied to the arteries extraluminally for 10 to 15 min before and after intraluminal perfusion with peptides. Effects of these agents were expressed as percent change in myogenic tone (decrease for dilators and increase for constrictors). Experiments were concluded by exposing the arteries to calcium free PCSF to obtain the passive diameter. Cell viability was determined by adding H3334 (Hoechst viability stain, final concentration 1 μM) and propidium iodide (final concentration 1 μM) to the arteriograph after the peptide incubation. Fluorescent micrographs were taken of the vessels after incubation with peptides and following addition of the vital stains using Till Photonics imaging system (Martinsried, Germany).
# [3] = tested on: endothelial cells and smooth muscle cells of rat cerebral arteries; assay: Uptake of fluorescent peptides by pressure-mounted rat cerebral arteries; format: cell-based
# Experimental: Tat-P16 peptides were prepared and labeled with fluorescein for use in uptake studies using intact blood vessels isolated from rat brain. Blood vessels were dissected from rat brain and stabilized in an isolated perfusion system in which vessels were attached on either end to catheters and placed under physiological pressure. Following a 10 minute perfusion of the isolated vessels with flurorescent Tat-P16 peptide (1 μM), vessels were examined for uptake of the peptides. […] Within the endothelial cells, the labeled peptides were seen to be localized to the cell nuclei, further confirming uptake of the peptides by the cells.
# The peptides are fairly labile in the media and approximately 50% are degraded upon incubation at 37° C. in complete media (qualitative analysis by PAGE) after 1 hour. […] Uptake of these peptides and cell killing activity was tested in a 3 dimensional organ culture using rat cerebral arteries cultured under physiological pressure and flow. A segment of the rat cerebral artery is surgically removed and placed in ringer's solution. Using a surgical stereoscope, the blood vessel is tied at either end to two cannulas on a teflon stage. Ringer's solution is perfused through the lumen of the vessel at a constant rate that maintains physiologic hydrostatic pressure. The fluorescent peptide was introduced intraluminally by perfusing a 1 μM solution of peptide through the lumen over a 10 minute period.
# Rats were anesthetized by intraperitoneal injection of pentobarbital sodium (160 mg/kg) and killed by decapitation. The brain was removed and placed in an ice-cold oxygenated physiological cerebrospinal fluid (PCSF, see below for composition). Cerebellar arteries were isolated and mounted in an arteriograph as described previously (Knot and Nelson 1998). The arteriograph was placed on an inverted microscope and the artery was visualized with a monochrome CCD camera coupled to a calibrated video caliper system to measure arterial diameter. The arteries were slowly pressurized to 70 mmHg under no flow conditions using a pressure servo-null system (Living Systems Inc., Burlington Vt.), and warmed to 37° C. while being continuously superfused (5 ml/min) with PCSF bubbled with 21% O2, 5% CO2, 74% N2 (pH 7.35-7.40 in the bath). […] Myogenic tone is calculated by the following equation: Myogenic tone=(Dp−Da)/Dp×100
# as §1
# [4] = tested on: A172 cells; assay: Fluorescein peptide uptake by A172 cells, fluorescence microscopy; format: cell-based, human; conditions: 30 uM peptide, 1 hr, 37° C., serum containing media
# Experimental: (§3) For fluorescent microscopy studies cells were plated on 2 chamber cover slips at a density of 1×10^4 cells/chamber. Cells were incubated with […] peptide for 30 minutes in completed media, washed with PBS 3× and imaged using a Nikon Axiophot inverted fluorescent microscope. Images were taken using a Spot CCD camera.
# Synthetic peptides derived from HIV Tat (Tat) and the Drosophila antennaepedia homeodomain (ANT) were tested for cell uptake by A172 cells (human glioblastomas). The peptides were labeled at the N-terminus with fluorescein. Cells were incubated with 30 uM peptide at 37° C. in serum containing media. Fluorescent micrographs were taken after 1 hr incubation at 37° C. […] The size of the peptide was increased by added an Mdm-2 binding domain derived from P14ARF. This domain was added to the C-terminus of the Tat and ANT peptides. The P14ARF domain was also placed at the N-terminus followed by the Tat peptide. All the peptides were labeled at the N-terminus with fluorescein and cell incubations similar to the Tat and ANT peptides were tested for cellular uptake. […] Both the bright field and fluorescent micrographs show altered cell morphology.
# [5] = tested on: rat cerebral arteries; assay: Cell viability staining of arteries (propidium iodide, H3334) after peptide; format: cell-based; conditions: after treatment with peptide
# Experimental: No PI statined smooth muscle cell nuclei were observed.
# as §2
# [6] = tested on: T98G cells; assay: Fusion peptide cell killing, propidium iodide/FACS viability, T98G cells; format: cell-based, human; conditions: 10 μM peptide, 1 hr
# Experimental: (§4) Other experiments were performed using two glioma cell lines, i.e., T98G and RG2. 1×10^6 cells per well were incubated in 6-well plates with peptides in complete media for 1 hr. Cells were removed from the plate using a cell stripper and the percentage of viable cells was determined by staining with propidium iodide and analyzing by fluorescence activated cell sorting (FACS).
# (§5) Cell viability studies were performed by plating the cells under the same conditions as the uptake studies. Cells were incubated with fluorescent peptides for 1 hr at 37° C. The cells were removed from the plate using cell striper. They were labeled with propidium iodide and fluorescein-AM. Percent PI positive cells were determined by FACS.
# [7] = tested on: RG2 cells; assay: Fusion peptide cell killing, propidium iodide/FACS viability, RG2 cells; format: cell-based, rat
# Experimental: as §4
# There are 4 conserved amino acid differences between the rat and human CDKI sequence. Both sequences were attached to Tat and tested for cell killing activity in the rat glioma RG2 cells. Also the effect of orientation of the Tat and CDKI domains were tested. RG2 cells were plated on 6 well plates at approximately 70% confluency. Each of the peptides was added to the wells with increasing concentration. After 1 hr, cells were removed from the plates, washed 2× with PBS, stained with propidium iodide and analyzed by FACS for viable cells.
# as §5
# The cytotoxicity of the chimeric peptides was characterized using a cell viability assay. Peptides were added to cells at a fixed concentration. After a 30-minute incubation, cells were removed from the plate, stained with propidium iodide and the % positive cells were determined by FACS (fluorescent activated cell scanning). The test conditions were Tat, ANT, Tat-P14ARF, ANT-P14ARF and P14ARF. T98G cells were tested along with RG2 cells and A172 cells.
# [8] = tested on: RG2 cells; assay: Fluorescein peptide uptake by RG2 cells, fluorescence microscopy; format: cell-based, rat
# Experimental: as §3
# Similar observations were obtained for all the peptides in another human glioblastoma cell line, T98G.
# [9] = intraluminal perfusion of fluorescent peptide
sequence,measurement,setting,value
AGGGYGRKKRRQRRRMVRRFLVTLRIRRA [Tat-P14ARF],effect on cells,[1],began to round up and subsequently die
same,endothelium-dependent dilation to histamine and bradykinin,[2],inhibited endothelial cell response to histamine and bradykinin; also recorded: significantly reduced
same,smooth muscle response to 60 and 16 mM KCl,[2],unaffected; also recorded: not affected
same,endothelium-dependent dilation to histamine and bradykinin,[2]; listed as Tat-CDKI,lack of response to vasodilators
same,morphology of the endothelial cells,[3]; after intraluminal exposure,morphology of the endothelial cells was altered
same,labeling/uptake by endothelial cells,[3]; [9],same labeling pattern as the Tat alone
same,labeling/uptake by smooth muscle cells,[3]; [9],No evidence was seen of uptake
same,labeling/uptake by endothelial cells,"[3]; intraluminal perfusion of fluorescent peptide, listed as Tat-P16",taken up by the endothelial cells; also recorded: localized to the endothelial cells
same,staining pattern (cell uptake),[4],nuclear staining
same,propidium iodide staining of blood vessels,[5],predominantly horizontal endothelial nuclei being stained indicating cell death
same,% killing (toxicity),[6],65%
same,% killing (toxicity),"[7]; 10 μM peptide, 1 hr",61%
same,IC50,[7]; dose response 1 μM to 10 μM,~10 µM
same,staining pattern (cell uptake),[8],nuclear staining

# — patent US7339042B2, “Gene delivery to tumors” (University of Florida Research Foundation, Inc., priority 2003, dated 2008)
